According to PMC12481576, “Barbituric Acid Derivatives as Covalent Inhibitors of Leishmania braziliensis Dihydroorotate Dehydrogenase” (Journal of Medicinal Chemistry, 2025):
Like-named read-outs stand apart in the source and are kept apart here.

Tests used:
[1] = biological target: T1, LbDHODH (Leishmania braziliensis, UniProt E9AI53); assay: biochemical; settings: for inhibition at 100 µM: read-out: enzyme inhibition
Summary of the method: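 Screened at 100 μM with and without 4-h enzyme preincubation; DCIP reduction during DHO oxidation read at 610 nm every 3 s for 60 s in 50 mM Tris pH 8.15, 150 mM KCl, 0.1% Triton X-100, triplicate, 5% DMSO control. kinact/KI taken as slope of kobs versus inhibitor concentration (initial linear region).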

[2] = biological target: T1, LbDHODH; assay: Kinact/KI determination from LbDHODH progress curves (kobs vs inhibitor concentration); assay type: biochemical; settings: for kinact/KI: slope of kobs vs inhibitor concentration
Text: The Kinact/Ki ratio is a key parameter for evaluating the potency of covalent inhibitors, as it quantitatively measures both their reactivity and affinity for the target enzyme. This parameter integrates two crucial aspects: KI, which reflects the inhibitor’s binding affinity, and Kinact, which describes the rate at which the covalent bond is formed. […] Therefore, this ratio is essential for ranking covalent inhibitors, optimizing their potency, and guiding structure-based drug design.
The experiments were performed in a 96-well microplate reader (SpectraMax Plus 384, Molecular Devices, USA), containing the […] of the buffer 60 mM DCIP, 50 mM Tris pH 8.15, 150 mM KCl, 0.1% Triton X-100, 50 μM DHO and 10 μM of LbDHODH at 165 nM. The reaction was monitored every 3 s at 610 nm over a period of 60 s, in triplicate, for the control and each concentration of the inhibitor. All assays were performed without incubation (0h) and with 4-h preincubation of the inhibitor with LbDHODH, using 5% DMSO (v/v) as control. […] To determine the IC50 values, the activity percentage data were fitted as a function of the concentration logarithm by nonlinear regression analysis (variable hillslope) using Prism 9.0 software (GraphPad Software, USA). […] The resulting kobs values were plotted as a function of inhibitor concentration, and the data in the initial linear region was fit to determine the slope, which is kinact/KI. All regressions were performed with GraphPad Prism 9.

[3] = tested on: THP-1 cells; assay: Cell viability / cytotoxicity assay (PrestoBlue, 72 h); assay type: cell-based; settings: THP-1 cell line, 72 h, max 200 μM
Summary of the method: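 PMA-differentiated THP-1 cells (150 ng/mL PMA, 48 h; then 24 h in fresh medium) were exposed to compounds in serial dilution from 200 μM for 72 h at 37 °C, 5% CO2. Viability was read by PrestoBlue fluorescence (ex 560/em 590 nm) after 2 h.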

[4] = 0 h, pH 8.15, read-out: LbDHODH Activity±SD (%)
[5] = 4 h, pH 8.15, read-out: LbDHODH Activity±SD (%)
[6] = IC50 0 h, LbDHODH, without preincubation
[7] = IC50 4 h, LbDHODH, 4-h preincubation
[8] = read-out: Single dose (0h) % activity
[9] = read-out: Single dose (4h) % activity

T1 sequence (E9AI53 entry or part of it): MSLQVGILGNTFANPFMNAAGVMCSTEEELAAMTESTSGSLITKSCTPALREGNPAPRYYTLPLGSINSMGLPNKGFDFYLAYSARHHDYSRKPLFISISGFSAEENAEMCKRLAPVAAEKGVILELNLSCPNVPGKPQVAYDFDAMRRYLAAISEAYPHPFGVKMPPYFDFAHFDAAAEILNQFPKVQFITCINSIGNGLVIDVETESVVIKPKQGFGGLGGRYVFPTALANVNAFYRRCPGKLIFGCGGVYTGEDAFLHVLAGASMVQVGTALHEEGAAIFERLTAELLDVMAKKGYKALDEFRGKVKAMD

| SMILES | activity at 0.390625 µM [1, 4] | activity at 0.78125 µM [1, 4] | activity at 1.5625 µM [1, 4] | activity at 3.125 µM [1, 4] | activity at 6.25 µM [1, 4] | activity at 12.5 µM [1, 4] | activity at 25 µM [1, 4] | activity at 50 µM [1, 4] | activity at 100 µM [1, 4] | activity at 200 µM [1, 4] | activity at 0.390625 µM [1, 5] | activity at 0.78125 µM [1, 5] | activity at 1.5625 µM [1, 5] | activity at 3.125 µM [1, 5] | activity at 12.5 µM [1, 5] | activity at 50 µM [1, 5] | IC50 [1, 6] | IC50 [1, 7] | activity at 100 µM [1, 8] | activity at 100 µM [1, 9] | also measured |
| --- | --- | --- | --- | --- | --- | --- | --- | --- | --- | --- | --- | --- | --- | --- | --- | --- | --- | --- | --- | --- | --- |
| COc1cc(C=C2C(=O)NC(=O)NC2=O)ccc1O [2c, 5-(4-Hydroxy-3-methoxybenzylidene)pyrimidine-2,4,6(1H,3H,5H)-trione] | 96 ± 9% | 92 ± 9% | 82 ± 23% | 77 ± 7% | 46 ± 4% | 36 ± 8% | 22 ± 2% | 13 ± 1% | 7 ± 4% | 5 ± 0.4% | 102 ± 10% | 97 ± 9% | 96 ± 12% | 90 ± 6% | 83 ± 8% | 62 ± 8% | 7 ± 1 µM | 89 ± 4 µM | 7 ± 3% | 21 ± 5% | activity at 400 µM [1, 4]: 6 ± 1%; activity at 6.25 µM [1, 5]: 86 ± 7%; activity at 25 µM [1, 5]: 72 ± 5%; activity at 100 µM [1, 5]: 52 ± 6%; activity at 200 µM [1, 5]: 32 ± 2%; activity at 400 µM [1, 5]: 23 ± 3% |
| O=C1NC(=O)C(=Cc2ccc(-c3ccccc3F)[nH]2)C(=O)N1 [2h, 5-((5-(2-Fluorophenyl)-1H-pyrrol-2-yl)methylene)pyrimidine-2,4,6(1H,3H,5H)-trione] | – | – | – | – | – | – | – | – | – | – | – | – | – | – | – | – | > 100 µM | > 100 µM | 90 ± 10% | 60 ± 10% | IC50 4 h ([1]; LbDHODH, 4-h preincubation): inactive |
| O=C1NC(=O)C(=Cc2ccc(O)c([N+](=O)[O-])c2)C(=O)N1 [2d, 5-(4-Hydroxy-3-nitrobenzylidene)pyrimidine-2,4,6(1H,3H,5H)-trione] | 99 ± 9% | 75 ± 6% | 60 ± 5% | 46 ± 5% | 25 ± 2% | 13 ± 1% | 11 ± 3% | 8 ± 1% | 6 ± 1% | 9 ± 4% | 75 ± 7% | 76 ± 8% | 72 ± 11% | 71 ± 6% | 52 ± 6% | 39 ± 7% | 3 ± 1 µM | 13 ± 2 µM | 5 ± 2% | 16 ± 3% | activity at 400 µM [1, 4]: 6 ± 2%; activity at 6.25 µM [1, 5]: 57 ± 7%; activity at 25 µM [1, 5]: 49 ± 7%; activity at 100 µM [1, 5]: 28 ± 3%; activity at 200 µM [1, 5]: 21 ± 8%; activity at 400 µM [1, 5]: 12 ± 4%; Kobs ([2]; inhibitor 0.18 µM): 0.003357 ± 0.002 s⁻¹; Kobs ([2]; inhibitor 0.390625 µM): 0.003416 ± 0.002 s⁻¹; Kobs ([2]; inhibitor 0.78125 µM): 0.003424 ± 0.002 s⁻¹; Kobs ([2]; inhibitor 1.5625 µM): 0.003613 ± 0.002 s⁻¹; Kobs ([2]; inhibitor 3.125 µM): 0.0038 ± 0.002 s⁻¹; Kobs ([2]; inhibitor 6.25 µM): 0.004522 ± 0.002 s⁻¹; Kobs ([2]; inhibitor 12.5 µM): 0.004748 ± 0.002 s⁻¹; Kobs ([2]; inhibitor 25 µM): 0.005571 ± 0.002 s⁻¹; Kobs ([2]; inhibitor 100 µM): 0.01122 ± 0.001 s⁻¹; Kobs ([2]; inhibitor 200 µM): 0.01796 ± 0.003 s⁻¹; kinact/KI [2]: 73 M⁻¹ s⁻¹ |
| O=C1NC(=O)C(=C/C=C/c2ccccc2)C(=O)N1 [2i, (E)-5-(3-Phenylallylidene)pyrimidine-2,4,6(1H,3H,5H)-trione] | 71 ± 17% | 72 ± 12% | 17 ± 4% | 11 ± 3% | 12 ± 3% | 4 ± 1% | 7 ± 3% | 4 ± 1% | 6 ± 1% | 1 ± 0.1% | 51 ± 9% | 38 ± 9% | – | 10 ± 3% | 4 ± 1% | 16 ± 0.5% | 0.9 ± 0.3 µM | 0.5 ± 0.1 µM | 1.1 ± 0.2% | 3 ± 2% | activity at 0.0976562 µM [1, 4]: 80 ± 11%; activity at 0.195312 µM [1, 4]: 83 ± 14%; activity at 0.0976562 µM [1, 5]: 94 ± 19%; activity at 0.195312 µM [1, 5]: 68 ± 11%; activity at 200 µM [1, 5]: 3 ± 0.4%; inhibition at 100 µM [1]: 97%; Kobs ([2]; inhibitor 0.0975 µM): 0.002849 ± 0.002 s⁻¹; Kobs ([2]; inhibitor 0.195 µM): 0.002994 ± 0.002 s⁻¹; Kobs ([2]; inhibitor 0.390625 µM): 0.003028 ± 0.002 s⁻¹; Kobs ([2]; inhibitor 0.78125 µM): 0.003309 ± 0.002 s⁻¹; Kobs ([2]; inhibitor 1.5625 µM): 0.003849 ± 0.002 s⁻¹; Kobs ([2]; inhibitor 3.125 µM): 0.005668 ± 0.003 s⁻¹; Kobs ([2]; inhibitor 6.25 µM): 0.007929 ± 0.002 s⁻¹; Kobs ([2]; inhibitor 12.5 µM): 0.02055 ± 0.002 s⁻¹; Kobs ([2]; inhibitor 25 µM): 0.0045 ± 0.002 s⁻¹; kinact/KI [2]: 767 M⁻¹ s⁻¹; CC50 [3]: no cytotoxicity |
| O=C1NC(=O)C(=Cc2ccc(N3CCOCC3)cc2[N+](=O)[O-])C(=O)N1 [2e, 5-(4-Morpholino-2-nitrobenzylidene)pyrimidine-2,4,6(1H,3H,5H)-trione] | 79 ± 3% | 83 ± 4% | 71 ± 2% | 67 ± 4% | 45 ± 3% | 31 ± 4% | 22 ± 1% | 7 ± 5% | 10 ± 1% | – | 106 ± 7% | 103 ± 1% | 85 ± 2% | 87 ± 2% | 60 ± 8% | 35 ± 4% | 5 ± 1 µM | 28 ± 3 µM | 10 ± 1% | 7 ± 2% | activity at 0.048828 µM [1, 4]: 87 ± 1%; activity at 0.0976562 µM [1, 4]: 92 ± 1%; activity at 0.195312 µM [1, 4]: 94 ± 1%; activity at 0.048828 µM [1, 5]: 104 ± 4%; activity at 0.0976562 µM [1, 5]: 107 ± 3%; activity at 0.195312 µM [1, 5]: 104 ± 3%; activity at 6.25 µM [1, 5]: 87 ± 2%; activity at 25 µM [1, 5]: 67 ± 6%; activity at 100 µM [1, 5]: 13 ± 1%; inhibition at 100 µM [1]: 90 to 93% |
